Reference: patent US20130011495A1, “ANTIFUNGAL COMPOUNDS AND USE THEREOF” (priority 2009, published 2013)
“Also recorded” adds a separate entry of the source. Where two headings read alike, the source gives them in different places.

Assays:
esca = settings: 18.5 g/L injected into the trunk; cited from earlier work
[1] = test system: Phaeoacremonium aleophilum; experiment: Mycelial growth on solid medium; settings: for inhibition of development, dose dependence: 5, 10 and 20 mM
[2] = test system: Phaeomoniella chlamydospora; experiment: Mycelial growth on solid medium; settings: for inhibition of growth, dose dependence: 5, 10 and 20 mM (whatever concentration); for inhibition of growth, dose dependence / inhibition of growth: FIG. 5 A; for inhibition of fungal development: FIG. 6 A
leaves = experiment: Tests of phytotoxicity (upper limits of amounts); format: in vivo
Method: According to the invention, the upper limits of amounts of the different products were determined in tests of phytotoxicity. First symptoms appear on the leaves at these amounts. […] These amounts can be slightly different or even greater depending on the sensitivity of the plant.

[3] = cited from earlier work
Eutypa lata = settings: pH 4.1; cited from earlier work
[4] = in vivo; cited from earlier work
Inonotus obliquus = settings: concentrations of 0.9 and 9 mM; cited from earlier work
[5] = sulfate 40 mM in BNM, solid medium pH 4.2, 12 days
[6] = sulfate 40 mM in BNM, solid medium pH 4.2, 18 days
[7] = ferrous salt 10 mM, FIG. 5 B, solid medium pH 4.2, 12 days
[8] = ferrous salt 20 mM, FIG. 5 B, solid medium pH 4.2, 12 days
[9] = ferrous salt 5 mM, solid medium pH 4.2, 18 days
[10] = ferrous salt 10 mM, solid medium pH 4.2, 18 days
[11] = 40 mM, used as the only nitrogen source (results not shown)
[12] = Phaeoacremonium minimum, 288 h, pH 4.2, read-out: inhibition of growth
[13] = Phaeomoniella chlamydospora, 432 h, pH 4.2, read-out: inhibition of growth
[14] = 14C-labeled SA at 10 μM, after 4 hours of absorption
[15] = Phaeomoniella chlamydospora, 432 h, pH 4.2, read-out: inhibition of mycelial development

Question: With `O=C([O-])c1ccccc1O.[K+]` as the molecule, how does the efficacy on esca (esca) read?
Answer: 45.4%

Question: For `O=S(=O)([O-])[O-].[Mg+2]` [MgSO4, magnesium sulfate], which inhibition [1, 5] is on record?
Answer: — (—: no inhibition)

Question: What about the inhibition [2, 6] of the same molecule?
Answer: — (—: no inhibition)

Question: With `O.O.O.O.O.O.O.O=S(=O)([O-])[O-].[Fe+2]` [iron sulfate] as the molecule, how does the “inhibition of development, dose dependence” value ([1]; FIG. 5 B) read?
Answer: dose-dependent inhibition

Question: What about the inhibition ([1]; FeSO4 1 mM in BNM, solid medium pH 4.2, 12 days) of the same molecule?
Answer: 15% inhibition

Question: And the inhibition ([1]; FeSO4 2.5 mM in BNM, solid medium pH 4.2, 12 days)?
Answer: 23.5% inhibition

Question: And the inhibition ([1]; FeSO4 5 mM in BNM, solid medium pH 4.2, 12 days)?
Answer: 33% inhibition

Question: And the inhibition ([1]; FeSO4 10 mM in BNM, solid medium pH 4.2, 12 days)?
Answer: 85% inhibition

Question: What about the inhibition of growth ([1]; ferrous salt 5 mM, FIG. 5 B, solid medium pH 4.2, 12 days) of the same molecule?
Answer: more inhibited with iron sulfate than with iron chloride and acetate

Question: And the inhibition of growth [1, 7]?
Answer: 75%

Question: And the inhibition of growth [1, 8]?
Answer: slight development

Question: What about the inhibition [1, 5] of the same molecule?
Answer: completely inhibit

Question: What about the inhibition ([1]; sulfate 40 mM in BNM, solid medium pH 4.2, 12 days, listed as FeSO4) of the same molecule?
Answer: 100% inhibition

Question: And the “inhibition of growth, dose dependence” value [2]?
Answer: dose-dependent inhibition

Question: What about the inhibition ([2]; FeSO4 1 mM in BNM, solid medium pH 4.2, 18 days) of the same molecule?
Answer: 4% inhibition

Question: What about the inhibition ([2]; FeSO4 2.5 mM in BNM, solid medium pH 4.2, 18 days) of the same molecule?
Answer: 21% inhibition

Question: And the inhibition ([2]; FeSO4 5 mM in BNM, solid medium pH 4.2, 18 days)?
Answer: 64% inhibition

Question: And the inhibition ([2]; FeSO4 10 mM in BNM, solid medium pH 4.2, 18 days)?
Answer: 95% inhibition

Question: And the inhibition of growth [2, 9]?
Answer: 65%

Question: What about the inhibition of growth [2, 10] of the same molecule?
Answer: not the case

Question: And the inhibition [2, 6]?
Answer: completely inhibit

Question: And the inhibition ([2]; sulfate 40 mM in BNM, solid medium pH 4.2, 18 days, listed as FeSO4)?
Answer: 100% inhibition

Question: And the “upper limit of amount determined in tests of phytotoxicity (first symptoms appear on the leaves)” value (leaves; concentration in the composition)?
Answer: 160 mM

Question: With `O=S(=O)([O-])[O-].[K+].[K+]` [K2SO4, potassium sulfate] as the molecule, how does the inhibition [1, 5] read?
Answer: — (—: no inhibition)

Question: And the inhibition [2, 6]?
Answer: — (—: no inhibition)

Question: With `N.N.O=S(=O)(O)O` [ammonium sulfate] as the molecule, how does the growth [1, 11] read?
Answer: slows the growth

Question: What about the inhibition [1, 5] of the same molecule?
Answer: — (—: no inhibition)

Question: And the growth [2, 11]?
Answer: slows the growth

Question: And the inhibition [2, 6]?
Answer: — (—: no inhibition)

Question: Which inhibition at 500 µM [1, 12] does the source give for `O=C(O)c1ccccc1O` [salicylic acid, 2-hydroxybenzoic acid] here?
Answer: 50%

Question: And the inhibition of development ([1]; salicylic acid 0.05 mM, FIG. 6 B, solid medium pH 4.2, 12 days)?
Answer: slightly inhibited

Question: And the inhibition of growth ([1]; salicylic acid 1 mM, FIG. 6 B, solid medium pH 4.2, 12 days)?
Answer: inhibited completely

Question: What about the inhibition at 500 µM [2, 13] of the same molecule?
Answer: 10%

Question: And the inhibition at 1000 µM [2, 13]?
Answer: 28%

Question: And the “inhibition of fungal development” value ([2]; salicylic acid 0.05 mM, solid medium pH 4.2, 18 days)?
Answer: does not inhibit

Question: What about the “inhibition of fungal development” value ([2]; salicylic acid 0.1 mM, solid medium pH 4.2, 18 days) of the same molecule?
Answer: does not inhibit

Question: And the “concentration detected in phloem sap” value [3, 14]?
Answer: 100 µM

Question: What about the “concentration detected in xylem sap” value [3, 14] of the same molecule?
Answer: 0.67 µM

Question: What about the “concentration factor in the phloem” value ([3]; pH between 4.6 and 5.0) of the same molecule?
Answer: ~10

Question: And the “threshold value of antifungal action” value (Eutypa lata)?
Answer: ~0.1 mM

Question: With `CCO[PH](=O)O` [fosetyl-aluminum, aluminum tris-O-ethylphosphonate] as the molecule, how does the “pH of maximum absorption” value [4] read?
Answer: 5.0

Question: What about the “time of detection in the phloem exudate after application” value [4] of the same molecule?
Answer: 30 min

Question: What about the inhibition at 1700 µM [1, 12] of the same molecule?
Answer: ~6%

Question: What about the inhibition at 2700 µM [1, 12] of the same molecule?
Answer: 30%

Question: And the inhibition at 3400 µM [1, 12]?
Answer: 45%

Question: What about the inhibition of growth ([1]; fosetyl-aluminum 0.3 mM, FIG. 7 B, solid medium pH 4.2, 12 days) of the same molecule?
Answer: no effect

Question: What about the inhibition of growth ([1]; fosetyl-aluminum 1 mM, FIG. 7 B, solid medium pH 4.2, 12 days) of the same molecule?
Answer: no effect

Question: What about the inhibition at 1000 µM [2, 15] of the same molecule?
Answer: 6%

Question: What about the inhibition at 1700 µM [2, 15] of the same molecule?
Answer: 14%

Question: What about the inhibition at 2700 µM [2, 15] of the same molecule?
Answer: 46%

Question: What about the inhibition at 3400 µM [2, 15] of the same molecule?
Answer: 86%

Question: What about the “inhibition of mycelial development” value ([2]; fosetyl-aluminum 0.3 mM, FIG. 7 A, solid medium pH 4.2, 18 days) of the same molecule?
Answer: no effect

Question: And the “upper limit of amount determined in tests of phytotoxicity (first symptoms appear on the leaves)” value (leaves; in vivo)?
Answer: 81 mM

Question: Which “inhibition of development, dose dependence” value ([1]; FIG. 5 B) does the source give for `CC(=O)[O-].CC(=O)[O-].[Fe+2]` [iron acetate] here?
Answer: dose-dependent inhibition

Question: What about the inhibition of growth [1, 7] of the same molecule?
Answer: 45%

Question: What about the inhibition of growth [1, 8] of the same molecule?
Answer: completely inhibited

Question: And the “inhibition of growth, dose dependence” value [2]?
Answer: dose-dependent inhibition

Question: And the inhibition of growth [2, 9]?
Answer: 40%

Question: What about the inhibition of growth [2, 10] of the same molecule?
Answer: completely inhibited

Question: For `O=S(=O)([O-])[O-].[Cu+2]` [CuSO4, copper sulfate], which inhibition [1, 5] is on record?
Answer: 100% inhibition

Question: What about the inhibition ([1]; sulfate 40 mM in BNM, solid medium pH 4.2, 12 days, listed as copper sulfate) of the same molecule?
Answer: completely inhibit

Question: What about the inhibition [2, 6] of the same molecule?
Answer: 100% inhibition

Question: And the inhibition ([2]; sulfate 40 mM in BNM, solid medium pH 4.2, 18 days, listed as copper sulfate)?
Answer: completely inhibit

Question: What does the source list for iron chloride?
Answer: inhibition of development, dose dependence ([1]; FIG. 5 B): dose-dependent inhibition; inhibition of growth [1, 7]: 75%; inhibition of growth [1, 8]: completely inhibited; inhibition of growth, dose dependence [2]: dose-dependent inhibition; also recorded: comparable to that obtained with iron sulfate; inhibition of growth [2, 10]: not the case

Question: For `N[C@@H](CS)C(=O)O` [cysteine, L-cysteine], which inhibition of development (Inonotus obliquus) is on record?
Answer: inhibits the development

Question: And the inhibition at 500 µM [1, 12]?
Answer: 11%

Question: What about the inhibition at 1000 µM [1, 12] of the same molecule?
Answer: 18%

Question: And the inhibition at 5000 µM [1, 12]?
Answer: 24%

Question: What about the inhibition at 10000 µM [1, 12] of the same molecule?
Answer: 37%

Question: What about the inhibition at 500 µM [2, 13] of the same molecule?
Answer: 0%

Question: And the inhibition at 1000 µM [2, 13]?
Answer: 13%

Question: And the inhibition at 5000 µM [2, 13]?
Answer: 34%

Question: And the inhibition at 10000 µM [2, 13]?
Answer: 80%
